Reference: ChEMBL document CHEMBL1671713, “Synergy of caspofungin with human polymorphonuclear granulocytes for killing Candida albicans” (2010)

How the values were obtained:
Type in all cases: functional
Candida albicans [1] = assay: Potentiation of compound pretreated human polymorphonuclear granulocytes-induced intracellular killing of Candida albicans at 8 ug/ml after 60 mins (Rvb =47%)
Candida albicans [2] = assay: Potentiation of human polymorphonuclear granulocytes-induced intracellular killing of Candida albicans at 2 ug/ml after 60 mins (Rvb =47%)
Candida albicans [3] = assay: Potentiation of human polymorphonuclear granulocytes-induced intracellular killing of Candida albicans at 3.2 ug/ml after 90 mins (Rvb =48%)
Candida albicans [4] = assay: Potentiation of human polymorphonuclear granulocytes-induced intracellular killing of Candida albicans at 2 ug/ml after 90 mins (Rvb =48%)
Candida albicans [5] = assay: Potentiation of compound pretreated human polymorphonuclear granulocytes-induced intracellular killing of Candida albicans at 3.2 ug/ml after 60 mins (Rvb =47%)
Candida albicans [6] = assay: Potentiation of human polymorphonuclear granulocytes-induced intracellular killing of Candida albicans at 8 ug/ml after 90 mins (Rvb =48%)
Candida albicans [7] = assay: Potentiation of human polymorphonuclear granulocytes-induced intracellular killing of compound pretreated Candida albicans for 1hr at 3.2 ug/ml after 90 mins (Rvb =48%)
Candida albicans [8] = assay: Potentiation of human polymorphonuclear granulocytes-induced intracellular killing of compound pretreated Candida albicans for 1hr at 8 ug/ml after 60 mins (Rvb =47%)
Candida albicans [9] = assay: Potentiation of human polymorphonuclear granulocytes-induced intracellular killing of compound pretreated Candida albicans for 1hr at 2 ug/ml after 90 mins (Rvb =48%)
Candida albicans [10] = assay: Potentiation of human polymorphonuclear granulocytes-induced intracellular killing of Candida albicans at 3.2 ug/ml after 30 mins (Rvb =46%)
Candida albicans [11] = assay: Potentiation of human polymorphonuclear granulocytes-induced intracellular killing of Candida albicans at 3.2 ug/ml after 60 mins (Rvb =47%)
Candida albicans [12] = assay: Potentiation of compound pretreated human polymorphonuclear granulocytes-induced intracellular killing of Candida albicans at 2 ug/ml after 60 mins (Rvb =47%)
Candida albicans [13] = assay: Potentiation of human polymorphonuclear granulocytes-induced intracellular killing of compound pretreated Candida albicans for 1hr at 8 ug/ml after 90 mins (Rvb =48%)
Candida albicans [14] = assay: Potentiation of human polymorphonuclear granulocytes-induced intracellular killing of Candida albicans at 8 ug/ml after 60 mins (Rvb =47%)
Candida albicans [15] = assay: Potentiation of human polymorphonuclear granulocytes-induced intracellular killing of compound pretreated Candida albicans for 1hr at 3.2 ug/ml after 60 mins (Rvb =47%)
Candida albicans [16] = assay: Potentiation of compound pretreated human polymorphonuclear granulocytes-induced intracellular killing of Candida albicans at 2 ug/ml after 30 mins (Rvb =46%)
Candida albicans [17] = assay: Potentiation of human polymorphonuclear granulocytes-induced intracellular killing of compound pretreated Candida albicans for 1hr at 2 ug/ml after 60 mins (Rvb =47%)
Candida albicans [18] = assay: Potentiation of compound pretreated human polymorphonuclear granulocytes-induced intracellular killing of Candida albicans at 3.2 ug/ml after 90 mins (Rvb =48%)
Candida albicans [19] = assay: Potentiation of human polymorphonuclear granulocytes-induced intracellular killing of compound pretreated Candida albicans for 1hr at 8 ug/ml after 30 mins (Rvb =46%)
Candida albicans [20] = assay: Potentiation of compound pretreated human polymorphonuclear granulocytes-induced intracellular killing of Candida albicans at 3.2 ug/ml after 30 mins (Rvb =46%)
Candida albicans [21] = assay: Potentiation of human polymorphonuclear granulocytes-induced intracellular killing of compound pretreated Candida albicans for 1hr at 3.2 ug/ml after 30 mins (Rvb =46%)
Candida albicans [22] = assay: Potentiation of compound pretreated human polymorphonuclear granulocytes-induced intracellular killing of Candida albicans at 8 ug/ml after 90 mins (Rvb =48%)
Candida albicans [23] = assay: Potentiation of human polymorphonuclear granulocytes-induced intracellular killing of Candida albicans at 8 ug/ml after 30 mins (Rvb =46%)
Candida albicans [24] = assay: Potentiation of human polymorphonuclear granulocytes-induced intracellular killing of Candida albicans at 2 ug/ml after 30 mins (Rvb =46%)
Candida albicans [25] = assay: Potentiation of compound pretreated human polymorphonuclear granulocytes-induced intracellular killing of Candida albicans at 2 ug/ml after 90 mins (Rvb =48%)
Candida albicans [26] = assay: Potentiation of compound pretreated human polymorphonuclear granulocytes-induced intracellular killing of Candida albicans at 8 ug/ml after 30 mins (Rvb =46%)
Candida albicans [27] = assay: Potentiation of human polymorphonuclear granulocytes-induced intracellular killing of compound pretreated Candida albicans for 1hr at 2 ug/ml after 30 mins (Rvb =46%)

CC[C@H](C)C[C@H](C)CCCCCCCCC(=O)N[C@H]1C[C@@H](O)[C@@H](NCCN)NC(=O)[C@@H]2[C@@H](O)CCN2C(=O)[C@H]([C@H](O)CCN)NC(=O)[C@H]([C@H](O)[C@@H](O)c2ccc(O)cc2)NC(=O)[C@@H]2C[C@@H](O)CN2C(=O)[C@H]([C@@H](C)O)NC1=O [CASPOFUNGIN]
Activity (Candida albicans [1]): 82%
Activity (Candida albicans [2]): 72%
Activity (Candida albicans [3]): 86%
Activity (Candida albicans [4]): 75%
Activity (Candida albicans [5]): 84%
Activity (Candida albicans [6]): 83%
Activity (Candida albicans [7]): 78%
Activity (Candida albicans [8]): 66%
Activity (Candida albicans [9]): 82%
Activity (Candida albicans [10]): 72%
Activity (Candida albicans [11]): 75%
Activity (Candida albicans [12]): 76%
Activity (Candida albicans [13]): 72%
Activity (Candida albicans [14]): 83%
Activity (Candida albicans [15]): 74%
Activity (Candida albicans [16]): 72%
Activity (Candida albicans [17]): 69%
Activity (Candida albicans [18]): 91%
Activity (Candida albicans [19]): 63%
Activity (Candida albicans [20]): 69%
Activity (Candida albicans [21]): 63%
Activity (Candida albicans [22]): 94%
Activity (Candida albicans [23]): 74%
Activity (Candida albicans [24]): 71%
Activity (Candida albicans [25]): 82%
Activity (Candida albicans [26]): 79%
Activity (Candida albicans [27]): 69%
